Laboratory results taken from patent US20240343722A1 (VIFOR (INTERNATIONAL) AG, priority 2021, published 2024).

Target: T1, ferroportin (Fpn) (Mus musculus, UniProt Q9JHI9)
T1 construct: endogenous in cells; host or cells: J774 mouse macrophage cell line, induced with Fe(III)NTA
T1 sequence (Q9JHI9 1-570): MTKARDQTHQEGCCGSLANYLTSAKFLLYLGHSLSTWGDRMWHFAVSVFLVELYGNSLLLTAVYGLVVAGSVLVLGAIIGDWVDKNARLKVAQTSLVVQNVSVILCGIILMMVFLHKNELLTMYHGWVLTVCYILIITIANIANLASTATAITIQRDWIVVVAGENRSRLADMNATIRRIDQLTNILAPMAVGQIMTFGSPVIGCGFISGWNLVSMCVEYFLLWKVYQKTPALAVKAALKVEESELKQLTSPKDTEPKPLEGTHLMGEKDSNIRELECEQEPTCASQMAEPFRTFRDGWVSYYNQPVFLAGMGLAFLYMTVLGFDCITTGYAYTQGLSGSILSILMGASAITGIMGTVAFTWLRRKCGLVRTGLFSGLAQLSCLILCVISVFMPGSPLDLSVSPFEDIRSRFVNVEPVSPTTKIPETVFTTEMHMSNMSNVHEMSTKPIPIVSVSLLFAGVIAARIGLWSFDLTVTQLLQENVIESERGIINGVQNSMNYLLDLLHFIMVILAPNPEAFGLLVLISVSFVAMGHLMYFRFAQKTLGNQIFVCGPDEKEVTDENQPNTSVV
Test: Hepcidin Internalization Assay (J774)
Assay type: cell-based
Conditions: Average (AVE) IC50 of multiple measurements; inhibition of TMR-hepcidin (25 nM) internalization into J774 cells
From the text: This cellular assay allows quantification of the binding of hepcidin to ferroportin (Fpn) through microscopic detection of internalization of a fluorescently labeled hepcidin into J774 cells. […] Binding of hepcidin to Fpn triggers internalization and degradation of both hepcidin and Fpn. […] Therefore, microscopic detection of cell-associated TMR fluorescence is a measure of hepcidin binding to Fpn and internalization of hepcidin and Fpn. If TMR-hepcidin is prevented from binding to Fpn, cellular TMR fluorescence remains low (Durrenberger et al, 2013). The effect of small molecular weight Fpn inhibitor compounds in this assay was evaluated in vitro as described below. […] After removal of the paraformaldehyde solution, cells were washed 3 times with PBS leaving 100 μl per well and the plates were sealed with foil plate seal. TMR (530-550 nm excitation/575-625 nm emission/400 ms exposure time) and Hoechst 33342 (360-370 nm excitation/420-460 nm emission /10 ms exposure time) fluorescence images were acquired using a […] imager (Olympus) with a 20× high NA objective. […] The acquired image data was analysed with the […] analysis software. […] IC50 values were calculated with the Sum(Mean) raw data using “log(inhibitor) vs. response” curve fitting of Prism 5 software (GraphPad Software Inc., version 5.02). For each data set the fit of the “log(inhibitor) vs. response (three parameters)” model was compared to the fit of the “log(inhibitor) vs. response - Variable slope (four parameters)” model and the IC50 data of the preferred model was used.

IC50 [nM] | SMILES
1.9 | O=C(NCc1ncccc1F)c1coc(CCNCCc2nc3ccccc3n2CCc2ccccc2)n1 [Example 23, N-((3-fluoropyridin-2-yl)methyl)-2-(2-((2-(1-phenethyl-1 H-benzo[d]imidazol-2-yl)ethyl)amino)ethyl)oxazole-4-carboxamide]
3300 | CCCCn1c(C2CCN(CCc3nc(C(=O)NCc4ncccc4F)co3)CC2)nc2ccccc21 [Example 49, 2-(2-(4-(1-butyl-1 H-benzo[d]imidazol-2-yl)piperidin-1-yl)ethyl)-N-((3-fluoropyridin-2-yl)methyl)oxazole-4-carboxamide]
5 | COCCOCCn1c(CCNCCc2nc(C(=O)NCc3ncccc3OC)co2)nc2cc3c(cc21)OCCO3 [Example 66, 2-(2-((2-(1-(2-(2-methoxyethoxy)ethyl)-6,7-dihydro-1 H-[1,4]dioxino[2′,3′:4,5]benzo[1,2-d]imidazol-2-yl)ethyl)amino)ethyl)-N-((3-methoxypyridin-2-yl)methyl)oxazole-4-carboxamide]
13 | COc1cccnc1CNC(=O)c1coc(CCNCCc2nc3cc4c(cc3n2CCN(C)C)OCCO4)n1 [Example 76, 2-(2-((2-(1-(2-(dimethylamino)ethyl)-6,7-dihydro-1 H-[1,4]dioxino[2′,3′:4,5]benzo[1,2-d]imidazol-2-yl)ethyl)amino)ethyl)-N-((3-methoxypyridin-2-yl)methyl)oxazole-4-carboxamide]
181 | NC(=O)Cn1c(CCNCCc2nc(C(=O)NCc3ncccc3F)co2)nc2ccccc21 [Example 16, 2-(2-((2-(1-(2-amino-2-oxoethyl)-1H-benzo[d]imidazol-2-yl)ethyl)amino)ethyl)-N-((3-fluoropyridin-2-yl)methyl)oxazole-4-carboxamide]
3 | COc1cccc(-n2c(CCNCCc3nc(C(=O)NCc4ncccc4OC)co3)nc3cc4c(cc32)OCCO4)c1 [Example 93, 2-(2-((2-(1-(3-methoxyphenyl)-6,7-dihydro-1 H-[1,4]dioxino[2′,3′:4,5]benzo[1,2-d]imidazol-2-yl)ethyl)amino)ethyl)-N-((3-methoxypyridin-2-yl)methyl)oxazole-4-carboxamide]
1 | O=C(NCc1ncccc1F)c1coc(CCNCCc2nc3ccccc3n2CCc2nc3ccccc3[nH]2)n1 [Example 44, 2-(2-((2-(1-(2-(1H-benzo[d]imidazol-2-yl)ethyl)-1 H-benzo[d]imidazol-2-yl)ethyl)amino)ethyl)-N-((3-fluoropyridin-2-yl)methyl)oxazole-4-carboxamide]
1.4 | CC(C)OCCn1c(CCNCCc2nc(C(=O)NCc3ncccc3F)co2)nc2ccccc21 [Example 57, N-((3-fluoropyridin-2-yl)methyl)-2-(2-((2-(1-(2-isopropoxyethyl)-1 H-benzo[d]imidazol-2-yl)ethyl)amino)ethyl)oxazole-4-carboxamide]
2.6 | CC(C)OCCn1c(CCNCCc2nc(C(=O)NCc3ncccc3F)co2)nc2cc3c(cc21)OCCO3 [Example 73, N-((3-fluoropyridin-2-yl)methyl)-2-(2-((2-(1-(2-isopropoxyethyl)-6,7-dihydro-1 H-[1,4]dioxino[2′,3′:4,5]benzo[1,2-d]imidazol-2-yl)ethyl)amino)ethyl)oxazole-4-carboxamide]
8 | CCCCn1c(CCNCCc2nc(C(=O)NCc3ncccc3C(F)(F)F)co2)nc2ccccc21 [Example 47, 2-(2-((2-(1-butyl-1 H-benzo[d]imidazol-2-yl)ethyl)amino)ethyl)-N-((3-(trifluoromethyl)pyridin-2-yl)methyl)oxazole-4-carboxamide]
0.8 | COc1cccc(CCn2c(CCNCCc3nc(C(=O)NCc4ncccc4F)co3)nc3ccccc32)c1 [Example 45, N-((3-fluoropyridin-2-yl)methyl)-2-(2-((2-(1-(3-methoxyphenethyl)-1 H-benzo[d]imidazol-2-yl)ethyl)amino)ethyl)oxazole-4-carboxamide]
3.6 | CCn1c(CCNCCc2nc(C(=O)NCc3ncccc3F)co2)nc2ccccc21 [Example 6, 2-(2-((2-(1-ethyl-1 H-benzo[d]imidazol-2-yl)ethyl)amino)ethyl)-N-((3-fluoropyridin-2-yl)methyl)oxazole-4-carboxamide]
625 | CCCCn1c(CC(C)(C)NCCc2nc(C(=O)NCc3ncccc3F)co2)nc2ccccc21 [Example 52, 2-(2-((1-(1-butyl-1 H-benzo[d]imidazol-2-yl)-2-methylpropan-2-yl)amino)ethyl)-N-((3-fluoropyridin-Z-yl)methyl)oxazole-4-carboxamide]
1.3 | O=C(NCc1ncccc1F)c1coc(CCNCCc2nc3ccccc3n2-c2cccc(Cl)c2)n1 [Example 64, 2-(2-((2-(1-(3-chlorophenyl)-1 H-benzo[d]imidazol-2-yl)ethyl)amino)ethyl)-N-((3-fluoropyridin-2-yl)methyl)oxazole-4-carboxamide]
32 | CNC(=O)Cn1c(CCNCCc2nc(C(=O)NCc3ncccc3F)co2)nc2ccccc21 [Example 15, N-((3-fluoropyridin-2-yl)methyl)-2-(2-((2-(1-(2-(methylamino)-2-oxoethyl)-1 H-benzo[d]imidazol-2-yl)ethyl)amino)ethyl)oxazole-4-carboxamide]
1.4 | O=C(NCc1ncccc1F)c1coc(CCNCCc2nc3ccccc3n2-c2ccccc2)n1 [Example 55, N-((3-fluoropyridin-2-yl)methyl)-2-(2-((2-(1-phenyl-1 H-benzo[d]imidazol-2-yl)ethyl)amino)ethyl)oxazole-4-carboxamide]
7.4 | Cn1ccnc1CCn1c(CCNCCc2nc(C(=O)NCc3ncccc3F)co2)nc2ccccc21 [Example 34, N-((3-fluoropyridin-2-yl)methyl)-2-(2-((2-(1-(2-(1-methyl-1 H-imidazol-2-yl)ethyl)-1 H-benzo[d]imidazol-2-yl)ethyl)amino)ethyl)oxazole-4-carboxamide]
0.9 | O=C(NCc1ncccc1F)c1coc(CCNCCc2nc3ccccc3n2Cc2ccccc2Cl)n1 [Example 54, 2-(2-((2-(1-(2-chlorobenzyl)-1H-benzo[d]imidazol-2-yl)ethyl)amino)ethyl)-N-((3-fluoropyridin-2-yl)methyl)oxazole-4-carboxamide]
0.8 | COc1cccc(-n2c(CCNCCc3nc(C(=O)NCc4ncccc4F)co3)nc3ccccc32)c1 [Example 63, N-((3-fluoropyridin-2-yl)methyl)-2-(2-((2-(1-(3-methoxyphenyl)-1H-benzo[d]imidazol-2-yl)ethyl)amino)ethyl)oxazole-4-carboxamide]
7 | O=C(NCc1ncccc1F)c1coc(CCNCCc2nc3cc4c(cc3n2CC(F)F)OCCO4)n1 [Example 71, 2-(2-((2-(1-(2,2-difluoroethyl)-6,7-dihydro-1 H-[1,4]dioxino[2′,3′:4,5]benzo[1,2-d]imidazol-2-yl)ethyl)amino)ethyl)-N-((3-fluoropyridin-2-yl)methyl)oxazole-4-carboxamide]
4 | COCCn1c(CCNCCc2nc(C(=O)NCc3ncccc3F)co2)nc2ccccc21 [Example 1, N-((3-fluoropyridin-2-yl)methyl)-2-(2-((2-(1-(2-methoxyethyl)-1 H-benzo[d]imidazol-2-yl)ethyl)amino)ethyl)oxazole-4-carboxamide]
0.9 | CCCCn1c(CCNCCc2nc(C(=O)NCc3ncccc3F)co2)nc2cc3c(cc21)OCCO3 [Example 37, 2-(2-((2-(1-butyl-6,7-dihydro-1H-[1,4]dioxino[2′,3′:4,5]benzo[1,2-d]imidazol-2-yl)ethyl)amino)ethyl)-N-((3-fluoropyridin-2-yl)methyl)oxazole-4-carboxamide]
2.4 | CCCCn1c(CCNCCc2nc(C(=O)NCc3ncccc3F)co2)nc2cc(-c3ccccc3)ccc21 [Example 42, 2-(2-((2-(1-butyl-5-phenyl-1 H-benzo[d]imidazol-2-yl)ethyl)amino)ethyl)-N-((3-fluoropyridin-2-yl)methyl)oxazole-4-carboxamide]
7.8 | O=C(NCc1ncccc1F)c1coc(CCNCCc2nc3cc(C#Cc4ccccn4)ccc3n2-c2ccccc2)n1 [Example 85, N-((3-fluoropyridin-2-yl)methyl)-2-(2-((2-(1-phenyl-5-(pyridin-2-ylethynyl)-1H-benzo[d]imidazol-2-yl)ethyl)amino)ethyl)oxazole-4-carboxamide]
